What is called Ki is the dissociation constant of the complex between target and ligand, obtained from inhibition or displacement.

Structures can show the parent of a compound that is named as a salt.

The subject of assay [1] is DOPA levels in striatum. Kind of assay: Reserpine-induced DOPA accumulation. The assay is classed as in vivo, Male Wistar rats. As to conditions: rats, s.c. The method, then: Example-53: Reserpine-Induced DOPA Accumulation
Male Wistar rats were pretreated with reserpine (5 mg/kg, s.c.) approximately 18 h before sacrifice and were thereafter fasted until sacrifice. Example-2 (3 mg/kg, p.o.) and (3-(3-hydroxyphenyl)-N-n-propylpiperidine (3-PPP); 30 mg/kg, s.c.) were administered 1.16 h and 1 h, respectively before sacrifice. Haloperidol (0.5 mg/kg, s.c.) was used as a positive control and was dosed 10 min prior to 3-PPP in a separate group of animals. 3-Hydroxybenzylhydrazine dihydrochloride (NSD-1015; 100 mg/kg, s.c.) was then administered 0.5 h before sacrifice. Each rat was sacrificed, brain was removed and then striatum was isolated. The tissue was immediately weighed and homogenized in 0.1 N perchloric acid by means of an ultrasonic disruptor while being cooled in ice. The homogenate was centrifuged at 4° C. at 20,000 g for 15 min. The supernatant was assayed for dihydroxyphenylalanine (DOPA) levels using HPLC-ECD.

Assay [2] has as its target T1, human histamine H1 receptor (Homo sapiens, UniProt P35367).
T1 construct: expressed in transfected cells; host or cells: CHO-K1
Kind of assay: Determination of Ki values at histamine H1 receptor ([3H]-Pyrilamine SPA binding). As to conditions: hH1, CHO-K1, [3H]-Pyrilamine 2 nM. The method, then:
Example-48: Determination of Ki values at Histamine H1 receptor
• Receptor source: Recombinant mammalian cells (CHO-K1) • Radioligand: [^3H]-Pyrilamine (20.7 Ci/mmol) • Final ligand concentration: 2 nM • Non-specific determinant: 0.1 mM Pyrilamine • Reference compound: Pyrilamine • Positive control: Pyrilamine Incubation conditions: Reactions were carried out in buffer with pH 7.4 containing 67 mM Tris-HCl and SPA beads (0.1 mg/well) for 1 h at 37° C. Radioactivity proximal to SPA beads was determined by scintillation proximity assay and compared to the control values in order to ascertain any interactions of the test compound(s) with cloned human histamine H1 receptor binding site.

The target in assay [3] is T2, human 5-HT1A receptor (Homo sapiens, UniProt P08908).
T2 construct: expressed in transfected cells; host or cells: HEK293-EBNA
T2 sequence (P08908 1-422): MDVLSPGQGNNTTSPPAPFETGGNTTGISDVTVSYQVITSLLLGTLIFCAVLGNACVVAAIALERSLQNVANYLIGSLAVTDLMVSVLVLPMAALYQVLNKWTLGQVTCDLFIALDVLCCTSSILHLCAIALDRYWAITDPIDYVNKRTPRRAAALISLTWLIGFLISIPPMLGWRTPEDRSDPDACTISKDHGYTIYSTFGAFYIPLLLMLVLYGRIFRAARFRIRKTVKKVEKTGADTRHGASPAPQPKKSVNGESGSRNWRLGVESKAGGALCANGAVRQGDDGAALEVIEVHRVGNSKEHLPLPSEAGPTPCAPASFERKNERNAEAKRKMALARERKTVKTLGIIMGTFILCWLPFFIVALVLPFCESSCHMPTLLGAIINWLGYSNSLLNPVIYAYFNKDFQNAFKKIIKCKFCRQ
Kind of assay: Determination of Ki values at 5-HT1A receptor ([3H]-8-Hydroxy DPAT radioligand binding). The settings on record: h5-HT1A, HEK293-EBNA, [3H]-8-Hydroxy DPAT 0.8 nM. The method, then:
Example-43: Determination of Ki Values at 5-HT1A Receptor
• Receptor source: Recombinant mammalian cells (HEK293-EBNA) • Radioligand: [^3H]-8-Hydroxy DPAT (200 Ci/mmol) • Final ligand concentration: 0.8 nM • Non-specific determinant: 0.1 mM U92016A • Reference compound: U92016A • Positive control: U92016A Incubation conditions: Reactions were carried out in buffer with pH 7.4 containing 50 mM Tris-HCl, 0.5 mM EDTA, 10 mM MgSO4, 0.1% Ascorbic acid for 2 h at RT. The reaction was terminated by rapid vacuum filtration onto the glass fiber filters. Radioactivity trapped onto the filters was determined and compared to the control values in order to ascertain any interactions of the test compound(s) with cloned human 5-HT1A receptor binding site.

Assay [4] concerns the target T3, human dopamine D2s receptor (Homo sapiens, UniProt P14416).
T3 construct: expressed in transfected cells; host or cells: CHO-K1
As to the kind of experiment: Determination of Ki values at D2S receptor ([3H]-Raclopride radioligand binding). The settings on record: hD2 (D2S), CHO-K1, [3H]-Raclopride 4 nM; read-out: Ki D2. The method, then: Example-45: Determination of Ki Values at D2S Receptor
• Receptor source: Recombinant mammalian cells (CHO-K1) • Radioligand: [^3H]-Raclopride (80.8 Ci/mmol) • Final ligand concentration: 4 nM • Non-specific determinant: 0.1 mM Haloperidol • Reference compound: Haloperidol • Positive control: Haloperidol Incubation conditions: Reactions were carried out in buffer with pH 7.4 containing 50 mM Tris-HCl, 120 mM NaCl, 5 mM KCl, 5 mM MgCl2, 1 mM EDTA for 2 h at RT. The reaction was terminated by rapid vacuum filtration onto the glass fiber filters. Radioactivity trapped onto the filters was determined and compared to the control values in order to ascertain any interactions of the test compound(s) with cloned human dopamine D2s receptor binding site.

Assay [5] addresses T4, human adrenergic α1B receptor (Homo sapiens, UniProt P35368).
T4 construct: expressed in transfected cells; host or cells: Chem-1
T4 sequence (P35368 1-520): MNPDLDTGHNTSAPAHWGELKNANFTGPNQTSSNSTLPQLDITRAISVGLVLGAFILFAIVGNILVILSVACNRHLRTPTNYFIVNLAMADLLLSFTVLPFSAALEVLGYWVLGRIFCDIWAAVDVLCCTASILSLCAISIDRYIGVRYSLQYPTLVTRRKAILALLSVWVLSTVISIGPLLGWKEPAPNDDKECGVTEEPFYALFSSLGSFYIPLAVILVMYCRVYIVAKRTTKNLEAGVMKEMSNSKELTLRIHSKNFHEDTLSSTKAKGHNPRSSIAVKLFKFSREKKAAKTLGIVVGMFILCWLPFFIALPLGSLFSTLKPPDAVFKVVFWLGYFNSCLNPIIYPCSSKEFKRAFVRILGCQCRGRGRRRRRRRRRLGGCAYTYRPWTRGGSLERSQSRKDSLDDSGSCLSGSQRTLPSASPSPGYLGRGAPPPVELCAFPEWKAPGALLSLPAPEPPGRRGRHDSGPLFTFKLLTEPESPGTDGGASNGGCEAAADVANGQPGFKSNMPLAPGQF
As to the kind of experiment: Determination of Ki values at adrenergic α1B receptor ([3H]-Prazosin radioligand binding). As to conditions: hα1B, Chem-1 cells, [3H]-Prazosin 1 nM; read-out: Ki Alpha1B. The method, then:
Example-47: Determination of Ki Values at Adrenergic α1B Receptor
• Receptor source: Recombinant mammalian cells (Chem-1) • Radioligand: [^3H]-Prazosin (77.4 Ci/mmol) • Final ligand concentration: 1 nM • Non-specific determinant: 0.1 mM Prazosin • Reference compound: Prazosin • Positive control: Prazosin Incubation conditions: Reactions were carried out in buffer with pH 7.4 containing 67 mM Tris-HCl, 67 μM EDTA, […] for 1 h at RT. The reaction was terminated by rapid vacuum filtration onto the glass fiber filters. Radioactivity trapped onto the filters was determined and compared to the control values in order to ascertain any interactions of the test compound(s) with cloned human adrenergic α1B receptor binding site.

The target in assay [6] is T5, human SERT (Homo sapiens, UniProt P31645).
T5 construct: expressed in transfected cells; host or cells: HEK293
T5 sequence (P31645 whole entry): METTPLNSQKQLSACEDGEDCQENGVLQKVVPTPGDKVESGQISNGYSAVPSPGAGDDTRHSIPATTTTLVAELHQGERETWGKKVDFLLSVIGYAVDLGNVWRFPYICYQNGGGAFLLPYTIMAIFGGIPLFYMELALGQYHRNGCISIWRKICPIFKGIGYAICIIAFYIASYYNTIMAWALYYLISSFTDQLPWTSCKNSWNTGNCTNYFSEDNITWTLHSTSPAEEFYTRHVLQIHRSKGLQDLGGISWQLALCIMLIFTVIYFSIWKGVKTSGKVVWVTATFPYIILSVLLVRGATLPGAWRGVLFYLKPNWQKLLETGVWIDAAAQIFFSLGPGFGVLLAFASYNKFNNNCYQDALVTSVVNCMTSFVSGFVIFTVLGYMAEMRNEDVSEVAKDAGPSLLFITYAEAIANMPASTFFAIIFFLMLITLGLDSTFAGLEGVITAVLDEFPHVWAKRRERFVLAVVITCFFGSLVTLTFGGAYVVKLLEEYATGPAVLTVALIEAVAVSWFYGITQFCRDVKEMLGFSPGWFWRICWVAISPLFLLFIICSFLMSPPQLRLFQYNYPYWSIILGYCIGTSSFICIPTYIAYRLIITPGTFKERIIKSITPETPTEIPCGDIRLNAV
As to the kind of experiment: Determination of Ki values at SERT receptor ([3H]-Citalopram SPA binding). As to conditions: hSERT, HEK293, [3H]-Citalopram 2 nM. The method, then:
Example-46: Determination of Ki Values at SERT Receptor
• Receptor source: Recombinant mammalian cells (HEK293) • Radioligand: [^3H]-Citalopram (80.8 Ci/mmol) • Final ligand concentration: 2 nM • Non-specific determinant: 0.1 mM Venlafaxine • Reference compound: Venlafaxine • Positive control: Venlafaxine Incubation conditions: Reactions were carried out in buffer with pH 7.4 containing 50 mM Tris-HCl, 150 mM NaCl, 5 mM KCl and Scintillation proximity assay (SPA) beads (0.1 mg/well) for 3 h at RT. Radioactivity proximal to SPA beads was determined by scintillation proximity assay and compared to the control values in order to ascertain any interactions of the test compound(s) with cloned human SERT receptor binding site.

The target in assay [7] is T6, human 5-HT2A receptor (Homo sapiens, UniProt P28223).
T6 construct: expressed in transfected cells; host or cells: CHO-K1
T6 sequence (P28223 whole entry): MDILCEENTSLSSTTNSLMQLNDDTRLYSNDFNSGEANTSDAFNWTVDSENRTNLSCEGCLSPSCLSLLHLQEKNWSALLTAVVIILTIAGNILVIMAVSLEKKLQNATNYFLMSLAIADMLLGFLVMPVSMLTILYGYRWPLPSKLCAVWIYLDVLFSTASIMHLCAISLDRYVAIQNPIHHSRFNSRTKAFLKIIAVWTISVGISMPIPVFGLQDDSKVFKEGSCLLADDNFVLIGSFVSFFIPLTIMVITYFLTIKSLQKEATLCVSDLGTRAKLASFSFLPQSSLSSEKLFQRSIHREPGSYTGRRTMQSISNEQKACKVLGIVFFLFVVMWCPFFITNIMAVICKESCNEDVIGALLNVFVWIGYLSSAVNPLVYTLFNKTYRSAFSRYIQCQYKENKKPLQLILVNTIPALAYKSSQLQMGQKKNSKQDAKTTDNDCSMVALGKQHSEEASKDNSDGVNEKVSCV
As to the kind of experiment: Determination of Ki values at 5-HT2A receptor ([3H]-Ketanserine radioligand binding). The settings on record: h5-HT2A, CHO-K1, [3H]-Ketanserine 1.25 nM. The method, then: Example-44: Determination of Ki Values at 5-HT2A Receptor
• Receptor source: Recombinant mammalian cells (CHO-K1) • Radioligand: [^3H]-Ketanserine (41.9 Ci/mmol) • Final ligand concentration: 1.25 nM • Non-specific determinant: 0.1 mM 1-Napthyl piperazine (1-NP) • Reference compound: 1-Napthyl piperazine (1-NP) • Positive control: 1-Napthyl piperazine (1-NP) Incubation conditions: Reactions were carried out in buffer with pH 7.4 containing 50 mM Tris-HCl, 4 mM CaCl2, 0.1% Ascorbic acid for 1 h at RT. The reaction was terminated by rapid vacuum filtration onto the glass fiber filters. Radioactivity trapped onto the filters was determined and compared to the control values in order to ascertain any interactions of the test compound(s) with cloned human 5-HT2A receptor binding site.

T3 sequence (P14416 1-414 isoform P14416-2): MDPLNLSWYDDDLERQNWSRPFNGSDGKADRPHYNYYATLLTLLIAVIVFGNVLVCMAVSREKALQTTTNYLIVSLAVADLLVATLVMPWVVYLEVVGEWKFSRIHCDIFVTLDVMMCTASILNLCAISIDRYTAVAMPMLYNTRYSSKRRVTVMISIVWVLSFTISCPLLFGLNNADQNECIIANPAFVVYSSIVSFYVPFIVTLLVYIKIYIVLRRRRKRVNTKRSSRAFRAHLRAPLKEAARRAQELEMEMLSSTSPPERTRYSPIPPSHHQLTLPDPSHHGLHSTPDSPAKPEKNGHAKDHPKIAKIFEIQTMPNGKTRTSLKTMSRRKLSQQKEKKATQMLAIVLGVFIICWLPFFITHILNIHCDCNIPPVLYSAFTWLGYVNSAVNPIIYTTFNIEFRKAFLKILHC
T1 sequence (P35367 whole entry): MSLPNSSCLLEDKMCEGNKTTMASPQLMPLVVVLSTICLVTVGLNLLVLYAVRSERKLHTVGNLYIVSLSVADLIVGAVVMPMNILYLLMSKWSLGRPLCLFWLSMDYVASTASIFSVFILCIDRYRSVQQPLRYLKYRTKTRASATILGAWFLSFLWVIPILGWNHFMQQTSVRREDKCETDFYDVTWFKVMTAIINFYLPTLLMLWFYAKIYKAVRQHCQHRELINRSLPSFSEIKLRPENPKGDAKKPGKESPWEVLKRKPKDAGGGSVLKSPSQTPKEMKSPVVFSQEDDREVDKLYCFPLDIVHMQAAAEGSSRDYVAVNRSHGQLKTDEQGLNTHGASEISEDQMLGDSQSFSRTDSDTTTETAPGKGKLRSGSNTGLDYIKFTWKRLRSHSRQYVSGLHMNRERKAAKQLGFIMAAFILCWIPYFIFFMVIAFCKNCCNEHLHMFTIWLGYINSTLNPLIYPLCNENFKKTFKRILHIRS

On to `COC(=O)[C@H]1[C@H]2C[C@@H]3c4[nH]c5cc(OC)ccc5c4CCN3C[C@H]2C[C@@H](OC(=O)c2cc(OC)c(OC)c(OC)c2)[C@@H]1OC` [reserpine], for which the “Increase in DOPA levels in striatum” value in assay [1] (reserpine 5 mg/kg, about 18 h before sacrifice) is “about 194%”.
In the case of `Cc1nc(-c2csc(OCCCN3CCN(c4nsc5ccccc45)CC3)n2)no1` [compound 10, 3-(4-{3-[4-(5-Methyl-[1,2,4]oxadiazol-3-yl)-thiazol-2-yloxy]-propyl}-piperazin-1-yl)-benzo[d]isothiazole oxalate], the Ki in assay [2] is 4.2 nM; in assay [3] it was 0.4 nM; in assay [4] it was 1.5 nM; in assay [5], 44.1 nM; in assay [6], 217 nM; in assay [7], 0.5 nM.
Take `Cc1nnc(-c2csc(OCCCN3CCC(c4noc5cc(F)ccc45)CC3)n2)o1` [compound 24, 6-Fluoro-3-(1-{3-[4-(5-methyl-[1,3,4]oxadiazol-2-yl)-thiazol-2-yloxy]-propyl}-piperidin-4-yl)-benzo[d]isoxazole oxalate]: the inhibition constant Ki in assay [2] stood at 3.5 nM; in assay [3], 1.8 nM; in assay [4], 0.7 nM; in assay [5], 1.5 nM; in assay [6] it was 1670 nM; in assay [7], 0.3 nM.
Turning to `CCCN1CCCC(c2cccc(O)c2)C1` (centres unmarked) [Example 3-PPP, 3-(3-hydroxyphenyl)-N-n-propylpiperidine], the “Reversal in reserpine induced DOPA accumulation” value in assay [1] (30 mg/kg, 1 h before sacrifice, striatum) turned out to be 77%.
On to `c1ccc2c(N3CCN(CCCOc4ccc(-c5cnco5)cn4)CC3)nsc2c1` [compound 22, 3-{4-[3-(5-Oxazol-5-yl-pyridin-2-yloxy)-propyl]-piperazin-1-yl}-benzo[d]isothiazole oxalate], for which the Ki stood at 1.8 nM in assay [2]; 0.3 nM in assay [3]; 0.4 nM in assay [4]; 5.7 nM in assay [5]; 18.8 nM in assay [6]; 0.01 nM in assay [7].
Take `Cc1nnc(-c2csc(OCCCN3CCN(c4nsc5ccccc45)CC3)n2)o1` [Example-1, 3-(4-{3-[4-(5-Methyl-[1,3,4]oxadiazol-2-yl)-thiazol-2-yloxy]-propyl}-piperazin-1-yl)-benzo[d]isothiazole]: the Ki in assay [2] amounted to 8.8 nM; in assay [3] it was 0.1 nM; in assay [4], 0.51 nM; in assay [5], 12.5 nM; in assay [6], 54.3 nM; in assay [7] it was 0.35 nM.

(Values after patent US12338236B2, “Benzoisothiazole and benzoisoxazole compounds for the treatment of mental disorders” (SUVEN LIFE SCIENCES LIMITED, priority 2022, dated 2025).)
